Data published in US10259753B2, “Multifunctional organic agricultural fertilizer composition and process for preparation thereof” (priority 2014, dated 2019).

Legend:
[1] = pH and color of glyphosate spray water treated with the composition; assay type: physicochemical; conditions: water treated with composition at 2 to 3 ml per ltr; control: plain water
Experimental: (§1) The water was treated with composition of example 3 and 5 as given in Table 15 at 2 to 3 ml per ltr of water till the pH of 4.5 and 4.2 is achieved as indicated by the color achieved to the water.

weeds = experiment: Control of weeds in cotton crop by glyphosate spray in water treated with the composition; assay type: in vivo; conditions: Glyfosate 750 ml/acre with composition, control: 1 Ltr/acre with plain water
Experimental: The cotton crop was treated with glyphosate at 1 Ltr per acre with plain water and Glyfosate used with the composition of Example 3 and 5 was used at 750 ml/acre.
as §1

[2] = Urea volatilization: loss of soil-applied urea, from nitrogen content of soil samples; conditions: 50 Kg urea in soil; 1 ltr of composition where used
Experimental: Experiment was carried out to check the effect of compositions of present invention to see the efficiency to prevent volatilization in urea.
It is noted that the pH of urea in soil in treatment T2 and T3 was adjusted to 4.5 to 5.0 due to addition of composition of invention.
The soil samples were collected from various selected locations wherever urea is applied and then checked for nitrogen content in laboratory after 0, 2, 4, 6, 8 and 10 days of urea application.

[3] = pH and color of cypermethrin spray water treated with the composition; assay type: physicochemical; conditions: composition 2 Ltr per 8000 sq. meter; control: normal well water
Experimental: (§2) Tomato crop infested with worms was sprayed with Cypermethrin 25% EC using normal well water and well water treated with the compositions of the invention. 4000 Sq. meter was treated only with water and another 8000 square meter plot was treated with composition of the invention as per Example No. 3 or 5. In both the plots, pest is controlled. In treated plot, the pest control is achieved at 95% and with 15% saving in the dosage of cypermethrin pesticide.

Pest worms = experiment: Control of pest worms on tomato by Cypermethrin 25% EC in well water treated with the composition; assay type: in vivo; conditions: Cypermethrin 125 ml/acre with composition, control: 150 ml/acre in normal well water
Experimental: The following compositions are used in the treatment for Tomato:
as §2

## O=C(O)CNCP(=O)(O)O [Glyfosate, glyphosate]
[1]
  pH of Glyfosate spray solution: 7.65
weeds
  Control of weeds: 72%

## NC(N)=O [Plain Urea, Urea]
[2]
  pH achieved of urea in soil: pH = 7.5

## CC1(C)C(C=C(Cl)Cl)C1C(=O)OC(C#N)c1cccc(Oc2ccccc2)c1 (centres unmarked) [Cypermethrin]
[3]
  pH of Cypermethrin Spray solution: 7.20
Pest worms
  Control of Pest worms: 78%
